Test results: article PMC10138577, “Prenylated Flavonoids with Selective Toxicity against Human Cancers” (International Journal of Molecular Sciences, 2023)

Assays:
Format in all cases: cell-based
[1] = tested on: MCF-7 human breast adenocarcinoma cells; assay: In vitro antiproliferative assay (SRB), MCF-7; details: for IC50: Homo sapiens, MCF7, MCF-7, 72 h exposure, SRB, mean ± SD; for Calculated selectivity index SIB: IC50 BALB/3T3/IC50 MCF-7; for Calculated selectivity index SIA: IC50 HLMEC/IC50 MCF-7
Excerpt: (§1) The following established in vitro cell lines were applied: human breast adenocarcinoma (MCF-7 and SK-BR-3), human breast ductal carcinoma (T47D), human prostate adenocarcinoma (PC-3), human prostate carcinoma (Du145), human colorectal adenocarcinoma (HT-29 and LoVo), doxorubicin-resistant human colorectal adenocarcinoma (LoVo/Dx), human myelomonocytic leukemia (MV-4-11), human lung adenocarcinoma (A549), normal murine embryonic fibroblasts (BALB/3T3) and human lung microvascular endothelial (HLMEC). All the cell lines were obtained from the American Type Culture Collection (Rockville, MD, USA) except for LoVo and LoVo/DX, which were received from the Technical University of Gdańsk, Poland, courtesy of Prof. E. Borowski. All the cell lines were maintained in the Institute of Immunology and Experimental Therapy, Wroclaw, Poland. The cells were cultured in the following media: DMEM medium (BALB/3T3), Eagle medium (MCF-7, SK-BR-3, Du145), RPMI medium (HLMEC, MV-4-11) or RPMI 1640 + Opti-MEM (1:1) medium (A549, T47D, LoVo, LoVo/Dx, PC-3, HT-29). The DMEM medium was supplemented with 2 mM L-glutamine and 10% fetal bovine serum. The Eagle medium was supplemented with 4 mM L-glutamine, 10% fetal bovine serum, 1 mM sodium pyruvate for Du145 cells or 2 mM L-glutamine, 1% amino acids and 0.8 mg L^−1 of insulin for MCF-7 and SK-BR-3. The RPMI medium was supplemented with 2 mM L-glutamine, 1 mM sodium pyruvate and 10% fetal bovine serum. The RPMI 1640 + Opti-MEM (1:1) medium was supplemented with 2 mM L-glutamine, 5% fetal bovine serum (PC-3, A549) and 0.8 mg L^−1 insulin (T47D) or 1 mM sodium pyruvate (HT-29, LoVo, LoVoDx) and 0.1 ug/mL doxorubicin (LoVo/Dx). The media contained antibiotics: 100 µg mL^−1 streptomycin and 100 U mL^−1 penicillin. All the cell lines were incubated at 37 °C in a humid atmosphere saturated with 5% CO2.
(§2) The details of this technique were described by Skehan et al.. After 72 h of incubation with the tested compounds, the cells were fixed in situ by gently adding cold 50% trichloroacetic acid—TCA (50 µL per well). The plates were incubated at 4 °C for 1 h and then washed five times with tap water and air-dried. Next, the cellular material fixed with TCA was stained by adding 50 µL of 0.4% sulforhodamine B dissolved in 1% acetic acid to each well and incubating the wells for 30 min at room temperature. The unbound dye was removed by washing the plates five times with 1% acetic acid, whereas the stain bound to the cells was extracted with 150 µL of 10 mM unbuffered Tris base for determination of the optical density at a 540 nm wavelength in a computer-interfaced, 96-well microtiter plate reader–Multiskan FC photometer (Thermo Scientific, Waltham, MA, USA). The background optical density was measured in the wells filled with culture medium, without the cells.
(§3) Twenty-four hours before incubation with the tested compounds, the cells were seeded in 96-well plates (Sarstedt, Nümbrecht, Germany) at a density of 10^4 cells per well (10^3 cells per well for HLMEC) in 100 µL of culture medium. The analysis of the antiproliferative activity of the compounds was performed using sulforhothamine B (SRB) (for all the adherent cells) or 3-(4,5-dimethylthiazol-2-yl)-2,5-diphenyl tetrazolium bromide (MTT) (for the leukemia cells—MV-4-11). The details of this technique have been previously described by Skehan et al. and Antoszak et al.. An assay was performed after 72 h of exposure at varying concentrations (from 0.1 to 100 µg mL^−1) of xanthohumol (1), aurone (2) and the reference drug cisplatin. Each compound at each concentration was tested in a single experiment, which was repeated at least 3 times. […] The results were calculated as the IC50 (μM) (half maximal inhibitory concentration), i.e., the concentration of the tested agent that inhibits the proliferation of the cancer cell population by half. […]

[2] = tested on: PC-3 human prostate adenocarcinoma cells; assay: In vitro antiproliferative assay (SRB), PC-3; details: for IC50: Homo sapiens, PC-3, 72 h exposure, SRB, mean ± SD; for Calculated selectivity index SIB: IC50 BALB/3T3/IC50 PC-3; for Calculated selectivity index SIA: IC50 HLMEC/IC50 PC-3
Excerpt: as §1, §2, §3

[3] = tested on: Du145 human prostate carcinoma cells; assay: In vitro antiproliferative assay (SRB), Du145; details: for IC50: Homo sapiens, DU-145, Du145, 72 h exposure, SRB, mean ± SD; for Calculated selectivity index SIB: IC50 BALB/3T3/IC50 Du145; for Calculated selectivity index SIA: IC50 HLMEC/IC50 Du145
Excerpt: as §1, §2, §3

[4] = tested on: A549 human lung adenocarcinoma cells; assay: In vitro antiproliferative assay (SRB), A549; details: for IC50: Homo sapiens, A549, 72 h exposure, SRB, mean ± SD; for Calculated selectivity index SIB: IC50 BALB/3T3/IC50 A549; for Calculated selectivity index SIA: IC50 HLMEC/IC50 A549
Excerpt: as §1, §2, §3

[5] = tested on: MV-4-11 human myelomonocytic leukemia cells; assay: In vitro antiproliferative assay (MTT), MV-4-11; details: for IC50: Homo sapiens, MV4-11, MV-4-11, 72 h exposure, MTT, mean ± SD; for Calculated selectivity index SIB: IC50 BALB/3T3/IC50 MV-4-11; for Calculated selectivity index SIA: IC50 HLMEC/IC50 MV-4-11
Excerpt: as §1
The details of this technique were described by Antoszczak et al.. The proliferation inhibition of human myelomonocytic leukemia (MV-4-11) by the tested compounds was measured using the MTT assay. Thus, 20 µL of 3-(4,5-dimethylthiazol-2-yl)-2,5-diphenyl tetrazolium bromide solution was added to each well. Then, the plates were incubated for 4 h in a cell incubator to allow the cells to metabolize the yellow MTT to blue formazan. Next, 80 µL of lysing mixture (consisting of 67.5 g sodium dodecyl sulfate, 225 mL dimethylformamide and 275 mL distilled water) was added to each well. The plates were incubated for 24 h for the formazan crystals to be released from the cells and dissolved, and then the absorbance of each well was read on a 96-well microtiter plate reader (Multiskan FC photometer (Thermo Scientific)) at a 570 nm wavelength.
Twenty-four hours before incubation with the tested compounds, the cells were seeded in 96-well plates (Sarstedt, Nümbrecht, Germany) at a density of 10^4 cells per well (10^3 cells per well for HLMEC) in 100 µL of culture medium. The analysis of the antiproliferative activity of the compounds was performed using sulforhothamine B (SRB) (for all the adherent cells) or 3-(4,5-dimethylthiazol-2-yl)-2,5-diphenyl tetrazolium bromide (MTT) (for the leukemia cells—MV-4-11). The details of this technique have been previously described by Skehan et al. and Antoszak et al.. An assay was performed after 72 h of exposure at varying concentrations (from 0.1 to 100 µg mL^−1) of xanthohumol (1), aurone (2) and the reference drug cisplatin. Each compound at each concentration was tested in a single experiment, which was repeated at least 3 times. […] The results were calculated as the IC50 (μM) (half maximal inhibitory concentration), i.e., the concentration of the tested agent that inhibits the proliferation of the cancer cell population by half. The IC50 values and the mean values ± SD calculated for each experiment separately using GraphPad Prism software (GraphPad Software 9.1.0, San Diego, CA, USA) are presented in Table S1 in the Supplementary Materials.

SMILES	IC50 [1]	Calculated selectivity index SIB [1]	Calculated selectivity index SIA [1]	IC50 [2]	Calculated selectivity index SIB [2]	Calculated selectivity index SIA [2]	IC50 [3]	Calculated selectivity index SIB [3]	Calculated selectivity index SIA [3]	IC50 [4]	Calculated selectivity index SIB [4]	Calculated selectivity index SIA [4]	IC50 [5]	Calculated selectivity index SIB [5]	Calculated selectivity index SIA [5]
COc1cc(O)c(CC=C(C)C)c(O)c1C(=O)/C=C/c1ccc(O)cc1 [compound 1, 3′-[3″,3″-dimethylallyl]-2′,4′,4-trihydroxy-6′-methoxychalcone]	9.29 ± 0.27 µM	2.11	3.91	9.15 ± 0.88 µM	2.14	3.97	10.3 ± 0.42 µM	1.90	3.51	10 ± 0.71 µM	1.96	3.62	8.07 ± 0.52 µM	2.43	4.50
COc1cc(O)c(CC=C(C)C)c2c1C(=O)/C(=C/c1ccc(O)cc1)O2 [compound 2, (Z)-6,4′-dihydroxy-4-methoxy-7-prenylaurone]	9.28 ± 0.5 µM	4.79	5.69	19.1 ± 9.27 µM	2.33	2.77	14.7 ± 4.42 µM	3.02	3.59	16.6 ± 3.29 µM	2.68	3.18	7.45 ± 0.87 µM	5.97	7.09
